Measured values published in US20220054465A1, “(PYRIDIN-2-YL)AMINE DERIVATIVES AS TGF-BETA R1 (ALK5) INHIBITORS FOR THE TREATMENT OF CANCER” (Nexys Therapeutics, Inc., priority 2018, published 2022).

Test system: HEK-Blue TGFβ cell
Test: HEK-Blue TGFβ cellular reporter gene assay (SEAP readout)
Format: cell-based
Details: HEK-Blue TGFβ cells stimulated with TGF-β, 22-23 h incubation, SEAP read at 630 nm
Experimental: HEK-Blue TGFβ Cellular Reporter Gene Assay:
HEK-Blue TGFβ cell was purchased from Invivogen. Cell suspension of 2.5×10^5 cells/ml was prepared using Test Medium (DMEM containing 0.5% v/v heat-inactivated FBS). TGF-β working solution (6 ng/ml) was obtained through diluting TGF-β stock solution (10 μg/ml) by Test Medium before use. Eight different concentrations of all compounds were obtained by 3× gradient dilution method using TGF-β working solution. Add 100 μl of Test Medium (Vehicle) or test article or TGF-β working solution per well of a flat-bottom 96-well plate. Add 100 μl of HEK-Blue TGF-β cell suspension per well. Incubate the plate at 37° C. in a CO2 incubator for 22-23 h. Add 150 μl of resuspended QUANTI-Blue per well of a new flat-bottom 96-well plate. Add 30 μl of induced HEK-Blue TGF-β cells supernatant. Avoid pipetting at the bottom of wells. Incubate the plate at 37° C. incubator for 30-40 min. Determine secreted embryonic alkaline phosphatase (SEAP) levels using a spectrophotometer at 630 nm.
The inhibition was calculated using the equation: […]

| Structure (SMILES) | IC50 [nM] |
| --- | --- |
| Cc1ccc(Oc2ccnc(Nc3cccc(C(C)(C)C(=O)O)c3)c2)c(-c2ccccn2)n1 [Example 72, 2-methyl-2-(3-((4-((6-methyl-[2,2′-bipyridin]-3-yl)oxy)pyridin-2-yl)amino)phenyl)propanoic acid] | 180 |
| Cc1ccc(Oc2ccnc(Nc3cccc(C(C)(C)C(=O)O)c3)c2)c(C)n1 [Example 73] | 140 |
| Cc1nc(-c2ccccc2)ccc1Oc1ccnc(Nc2cccc(C(C)(C)C(=O)O)c2)c1 [Example 75] | 8120 |
| Cc1cc(Oc2ccnc(Nc3cccc(OCC(=O)O)c3)c2)c(-c2ccccn2)nc1C [Example 76] | > 10000 |
| Cc1ccc(Oc2ccnc(Nc3cccc(C4(C(=O)O)CC4)c3)c2)c(-c2ccccc2)n1 [Example 77, 1-(3-((4-((6-methyl-2-phenylpyridin-3-yl)oxy)pyridin-2-yl)amino)phenyl)cyclopropane-1-carboxylic acid] | 80 |
| Cc1ccc(Oc2ccnc(Nc3cccc(C(C)(C)C(=O)O)c3)c2)c(-c2cccc(Cl)c2)n1 [Example 78] | 110 |
| Cc1ccc(Oc2ccnc(Nc3cccc(C(C)(C)C(=O)O)c3)c2)c(-c2ccc(Cl)cc2)n1 [Example 79] | 180 |
| Cc1ccc(Oc2ccnc(Nc3cccc(C(C)(C)C(=O)O)c3)c2)c(-c2ccccc2Cl)n1 [Example 80] | 110 |
| CCc1nc(C)c(Oc2ccnc(Nc3cccc(C(C)(C)C(=O)O)c3)c2)cc1C [Example 82] | 18 |
| CCc1nc(C)c(Oc2ccnc(Nc3cccc(C(C)(C)C(=O)O)c3)c2)cc1Cl [Example 83] | 35 |
| CCc1ccc(Oc2ccnc(Nc3cccc(C(C)(C)C(=O)O)c3)c2)c(-c2ccccn2)n1 [Example 84] | 55 |
| CCc1nc(-c2ccccn2)c(Oc2ccnc(Nc3cccc(C(C)(C)C(=O)O)c3)c2)cc1C [Example 85] | 44 |
| COc1ccccc1-c1nc(C)ccc1Oc1ccnc(Nc2cccc(C(C)(C)C(=O)O)c2)c1 [Example 86] | 240 |
| COc1cccc(-c2nc(C)ccc2Oc2ccnc(Nc3cccc(C(C)(C)C(=O)O)c3)c2)c1 [Example 87] | 94 |
| COc1ccc(-c2nc(C)ccc2Oc2ccnc(Nc3cccc(C(C)(C)C(=O)O)c3)c2)cc1 [Example 88] | 39 |
| Cc1ccc(Oc2ccnc(Nc3cccc(C(C)(C)C(=O)O)c3)c2)c(-c2ccccc2F)n1 [Example 89] | 27 |
| Cc1ccc(Oc2ccnc(Nc3cccc(C(C)(C)C(=O)O)c3)c2)c(-c2cccc(F)c2)n1 [Example 90] | 24 |
| Cc1ccc(Oc2ccnc(Nc3cccc(C(C)(C)C(=O)O)c3)c2)c(-c2ccc(F)cc2)n1 [Example 91] | 18 |
| Cc1ccc(Oc2ccnc(Nc3cccc(C(C)(C)C(=O)O)c3)c2)c(-c2ccccc2C)n1 [Example 92] | 80 |
| Cc1cccc(-c2nc(C)ccc2Oc2ccnc(Nc3cccc(C(C)(C)C(=O)O)c3)c2)c1 [Example 93] | 120 |
| Cc1ccc(-c2nc(C)ccc2Oc2ccnc(Nc3cccc(C(C)(C)C(=O)O)c3)c2)cc1 [Example 94] | 64 |
| Cc1ccc(Oc2ccnc(Nc3cccc(C(C)(C)C(=O)O)c3)c2)c(-c2ccccc2C#N)n1 [Example 95] | 290 |
| Cc1ccc(Oc2ccnc(Nc3cccc(C(C)(C)C(=O)O)c3)c2)c(-c2cccc(C#N)c2)n1 [Example 96] | 190 |
| Cc1ccc(Oc2ccnc(Nc3cccc(C(C)(C)C(=O)O)c3)c2)c(-c2ccc(C#N)cc2)n1 [Example 97] | 200 |
| Cc1cc(Oc2ccnc(Nc3cccc(C(C)(C)C(=O)O)c3)c2)c(-c2ccccc2)nc1C [Example 98] | 51 |
| Cc1nc(-c2ccccc2)c(Oc2ccnc(Nc3cccc(C(C)(C)C(=O)O)c3)c2)cc1Cl [Example 99] | 23 |
| CCc1cc(Oc2ccnc(Nc3cccc(C(C)(C)C(=O)O)c3)c2)c(-c2ccccc2)nc1C [Example 100] | 2590 |

| Structure (SMILES) | IC50 [nM] |
| --- | --- |
| Cc1nc(-c2ccccc2)c(Oc2ccnc(Nc3cccc(C(C)(C)C(=O)O)c3)c2)cc1C1CC1 [Example 101] | 3310 |
| Cc1nc(-c2ccccc2)c(Oc2ccnc(Nc3cccc(C(C)(C)C(=O)O)c3)c2)cc1C(C)C [Example 102] | 2710 |
| Cc1nc(-c2ccccc2)c(Oc2ccnc(Nc3cccc(C(C)(C)C(=O)O)c3)c2)cc1C(C)(C)O [Example 103] | > 10000 |
| CC(C)(C(=O)O)c1cccc(Nc2cc(Oc3ccc(C4CC4)nc3-c3ccccc3)ccn2)c1 [Example 105] | 130 |
| CCCc1ccc(Oc2ccnc(Nc3cccc(C(C)(C)C(=O)O)c3)c2)c(-c2ccccc2)n1 [Example 106] | 120 |
| CC(C)c1ccc(Oc2ccnc(Nc3cccc(C(C)(C)C(=O)O)c3)c2)c(-c2ccccc2)n1 [Example 107] | 180 |
| Cc1ccc(Oc2ccnc(Nc3cccc(C(C)(C)C(=O)O)c3)c2)c(C2CCOCC2)n1 [Example 108] | 900 |
| Cc1cc(Oc2ccnc(Nc3cccc(C(C)(C)CC(=O)O)c3)c2)c(-c2ccccn2)nc1C [Example 109] | 51 |
| Cc1ccc(Oc2ccnc(Nc3cccc(C(C)(C)CC(=O)O)c3)c2)c(-c2ccccc2)n1 [Example 110] | 30 |
| O=C(O)c1cccc(Nc2cc(Oc3cn(C4CC4)nc3C3CCOCC3)ccn2)c1 [Example 111] | 6200 |
| Cc1cc(Nc2cc(Oc3cn(C4CC4)nc3C3CCOCC3)ccn2)cc(C(=O)O)c1 [Example 112] | 1670 |
| CC(C)(C(=O)O)c1ccc(Nc2cc(Oc3cn(C4CC4)nc3C3CCOCC3)ccn2)cc1 [Example 113] | 510 |
| Cc1ccc(Nc2cc(Oc3cn(C4CC4)nc3C3CCOCC3)ccn2)cc1C(=O)O [Example 114] | 2540 |
| Cc1ccc(Nc2cc(Oc3cn(C4CC4)nc3C3CCOCC3)ccn2)cc1CC(=O)O [Example 115] | 1100 |
| O=C(O)c1cc(Nc2cc(Oc3cn(C4CC4)nc3C3CCOCC3)ccn2)ccn1 [Example 117] | > 10000 |
| CC(C)(C(=O)O)c1cccc(Nc2cc(Oc3cn(C4CCC4)nc3C3CCOCC3)ccn2)c1 [Example 118] | 310 |
| CC(C)(C(=O)O)c1cccc(Nc2cc(Oc3cn(C4CC4)nc3-c3ccccc3)ccn2)c1 [Example 119] | 13 |
| Cn1cc(Oc2ccnc(Nc3cccc(C(C)(C)C(=O)O)c3)c2)c(-c2ccccc2)n1 [Example 120] | 50 |
| CC(C)(C(=O)O)c1cccc(Nc2cc(Oc3cn(C(F)F)nc3-c3ccccc3)ccn2)c1 [Example 121] | 78 |
| CCn1cc(Oc2ccnc(Nc3cccc(C(C)(C)C(=O)O)c3)c2)c(-c2ccccc2)n1 [Example 122] | 29 |
| CC(C)(C(=O)O)c1cccc(Nc2cc(Oc3cn(CC(F)F)nc3-c3ccccc3)ccn2)c1 [Example 123] | 180 |
| CC(C)n1cc(Oc2ccnc(Nc3cccc(C(C)(C)C(=O)O)c3)c2)c(-c2ccccc2)n1 [Example 124] | 190 |
| CC(C)(C(=O)O)c1cccc(Nc2cc(Oc3cn(C4CCC4)nc3-c3ccccc3)ccn2)c1 [Example 125] | 66 |
| CC(C)(C(=O)O)c1cccc(Nc2cc(Oc3cn(C4COC4)nc3-c3ccccc3)ccn2)c1 [Example 126] | 200 |
| CC(C)(C(=O)O)c1cccc(Nc2cc(Oc3cn(C4CC4)nc3C3CCCCC3)ccn2)c1 [Example 127] | 12 |
| CC(C)(C(=O)O)c1cccc(Nc2cc(Oc3cn(C4CC4)nc3C3CCCC3)ccn2)c1 [Example 128] | 22 |
| CC(C)(C(=O)O)c1cccc(Nc2cc(Oc3cn(C4CC4)nc3C3CCC3)ccn2)c1 [Example 129] | 29 |
